Target: T1, recombinant human PKM2 (Homo sapiens, UniProt P14618)
T1 construct: His (N); purchased R&D Systems
Experiment: Human PKM2 activation assay (Kinase-Glo Plus luminescent detection of generated ATP)
Assay type: biochemical
Details: for Emax: percentage activation normalised to DMSO vehicle (LOW) and 5 μM TEPP-46 (HIGH), read-out: hPKM2 Emax; for EC50: recombinant human PKM2 activation, 4-parameter logistic fit, read-out: hPKM2 EC50
Protocol: Compound activation of recombinant human PKM2 pyruvate kinase activity was determined by biochemical assay. N-terminal His-tagged hPKM2 was sourced from R&D Systems and its substrates phosphoenolpyruvate (PEP) and ADP from Sigma-Aldrich and 2Bscientific Ltd, respectively. The Kinase-Glo® Plus luminescence assay was from Promega. All other reagents were from Sigma-Aldrich. Test Compounds were prepared as 10 mM DMSO stocks and dilution series prepared in DMSO for direct dilution into Assay Buffer comprising 50 mM imidazole, 50 mM KCl, 7 mM MgCl2, 0.01% Tween20, 0.05% BSA (pH 7.2).
Human PKM2 was diluted into Assay Buffer comprising 50 mM imidazole, 50 mM KCl, 7 mM MgCl2, 0.01% Tween20, 0.05% BSA (pH 7.2) to a final concentration of […]. Enzyme-Assay Buffer mix was dispensed into a 384-well shallow-well white-walled plate (PerkinElmer) and Test Compounds added by acoustic dispense (Echo®, Labcyte Inc.).
After 60 minutes' incubation on an orbital shaker (300 rpm, 26° C.), enzyme activity was quantified by the luminescent detection of generated ATP. Kinase-Glo® Plus reagent was added to each well and the plates incubated for a further 15 minutes on an orbital shaker in the dark (300 rpm, 26° C.) before luminescence measurement on a plate reader (PHERAstar® FSX, BMG Labtech).
Percentage activation was calculated by normalising […] signals to plate LOW (DMSO vehicle) and HIGH (5 μM TEPP-46) controls. EC50 and Emax values were determined from 4-parameter logistic fits of compound concentration-response curves.

T1 sequence (P14618 2-531 limits assumed): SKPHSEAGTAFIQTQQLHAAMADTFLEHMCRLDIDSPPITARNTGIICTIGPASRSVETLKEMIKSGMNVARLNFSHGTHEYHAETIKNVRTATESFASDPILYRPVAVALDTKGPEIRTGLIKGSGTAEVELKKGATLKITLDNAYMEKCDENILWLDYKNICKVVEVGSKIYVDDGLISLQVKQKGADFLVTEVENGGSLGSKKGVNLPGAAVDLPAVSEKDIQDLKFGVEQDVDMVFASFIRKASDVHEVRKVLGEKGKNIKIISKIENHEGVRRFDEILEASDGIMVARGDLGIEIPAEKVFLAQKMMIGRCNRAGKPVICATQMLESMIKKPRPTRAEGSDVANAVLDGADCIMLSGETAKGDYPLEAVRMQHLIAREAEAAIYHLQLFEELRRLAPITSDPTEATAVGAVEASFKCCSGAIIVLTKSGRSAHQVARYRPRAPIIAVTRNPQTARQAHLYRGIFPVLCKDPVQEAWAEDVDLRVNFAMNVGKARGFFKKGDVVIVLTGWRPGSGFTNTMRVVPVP

With `COc1ccc(F)c(Cn2ncc3cc(S(=O)(=O)c4cc[nH]n4)ccc3c2=O)n1` [Example 329] the Emax was 98.5% and the EC50 was 232 nM.

`Cn1ccc(Cn2ncc3c(F)c(S(=O)(=O)c4ccccc4)ccc3c2=O)n1` [Example 243, 5-fluoro-2-((1-methyl-1H-pyrazol-3-yl)methyl)-6-(phenylsulfonyl)phthalazin-1(2H)-one] showed an Emax of 109% and an EC50 of 86 nM.

`O=c1c2ccc(S(=O)(=O)c3cnn(C(F)F)c3)cc2cnn1Cc1ccc2c(n1)CCO2` [Example 340] gave an Emax of 111% and an EC50 of 29.3 nM.

In the case of `Nc1cccc(Cn2ncc3cc([S+]([O-])c4ccccc4)ccc3c2=O)c1` (centres unmarked) [Example 119, 2-(3-aminobenzyl)-6-(phenylsulfinyl)phthalazin-1(2H)-one], the Emax is reported as 98.8% and the EC50 is reported as 348 nM.

For `O=c1c2ccc(S(=O)(=O)c3ccc4[nH]ccc4c3)cc2cnn1Cc1cc[nH]n1` [Example 226, 6-((1H-indol-5-yl)sulfonyl)-2-((1H-pyrazol-3-yl)methyl)phthalazin-1(2H)-one], the Emax was 114% and the EC50 was 356 nM.

In the case of `Cn1cc(S(=O)(=O)c2ccc3c(=O)n(Cc4cc(Cl)[nH]n4)ncc3c2)cn1` [Example 317], the Emax is reported as 109% and the EC50 is reported as 169 nM.

Work on `O=c1c2ccc(S(=O)(=O)c3ccccc3)cc2cnn1Cc1cc(F)[nH]n1` [Example 111, 2-((5-fluoro-1H-pyrazol-3-yl)methyl)-6-(phenylsulfonyl)phthalazin-1(2H)-one] yielded an Emax of 124% and an EC50 of 243 nM.

Compound `COc1ccc(Cn2ncc3cc(S(=O)(=O)c4cccc5[nH]ncc45)ccc3c2=O)cn1` [Example 123, 6-((1H-indazol-4-yl)sulfonyl)-2-((6-methoxypyridin-3-yl)methyl)phthalazin-1(2H)-one] has an Emax of 74.4% and an EC50 of 123 nM.

`COc1ccc(Cn2ncc3cc(S(=O)(=O)c4ccc(OC)nc4)ccc3c2=O)cn1` [Example 175, 2-((6-methoxypyridin-3-yl)methyl)-6-(6-methoxypyridin-3-ylsulfonyl)phthalazin-1(2H)-one] was tested, and the Emax was 97.2% and the EC50 was 71.2 nM.

In the case of `O=c1c2ccc(S(=O)(=O)c3cnc4c(c3)OCCO4)cc2cnn1Cc1cc[nH]n1` [Example 234, 2-((1H-pyrazol-3-yl)methyl)-6-((2,3-dihydro-[1,4]dioxino[2,3-b]pyridin-7-yl)sulfonyl)phthalazin-1(2H)-one], the Emax is reported as 91.9% and the EC50 is reported as 394 nM.

For `COc1ccc(S(=O)(=O)c2ccc3c(=O)n(Cc4ccnc(O)c4)ncc3c2)cc1` [Example 3, 2-((2-hydroxypyridin-4-yl)methyl)-6-((4-methoxyphenyl)sulfonyl)phthalazin-1(2H)-one], the Emax was 92.6% and the EC50 was 566 nM.

`O=c1c2ccc(S(=O)(=O)c3cnn(C(F)F)c3)cc2cnn1Cc1cc[nH]n1` [Example 305] was tested, and the Emax was 99.9%.

In the case of `COc1ccc(Cn2ncc3cc(S(=O)(=O)c4cc(C)ccn4)ccc3c2=O)cn1` [Example 159, 2-((6-methoxypyridin-3-yl)methyl)-6-(4-methylpyridin-2-ylsulfonyl)phthalazin-1(2H)-one], the Emax is reported as 72.4% and the EC50 is reported as 501 nM.

`COC(C)c1nc(S(=O)(=O)c2ccc3c(=O)n(Cc4ccc5occc5n4)ncc3c2)cs1` (centres unmarked) [Example 352] was tested, and the Emax was 117% and the EC50 was 27.5 nM.

Compound `O=c1c2cc(NCCO)c(S(=O)(=O)c3ccccc3)cc2cnn1Cc1cc[nH]n1` [Example 263, 2-((1H-pyrazol-3-yl)methyl)-7-((2-hydroxyethyl)amino)-6-(phenylsulfonyl)phthalazin-1(2H)-one] has an Emax of 98% and an EC50 of 172 nM.

Work on `Cc1ccc(F)c(Cn2ncc3cc(S(=O)(=O)c4cc[nH]n4)ccc3c2=O)n1` [Example 301] yielded an Emax of 119% and an EC50 of 131 nM.

`COc1ccc(Cn2ncc3cc(S(=O)(=O)c4ccn(C)n4)ccc3c2=O)cn1` [Example 158, 2-((6-methoxypyridin-3-yl)methyl)-6-((1-methyl-1H-pyrazol-3-yl)sulfonyl)phthalazin-1(2H)-one] gave an Emax of 85.4% and an EC50 of 186 nM.

For `COc1ccc(Cn2ncc3cc(S(=O)(=O)c4csc(C)n4)ccc3c2=O)cn1` [Example 174, 2-((6-methoxypyridin-3-yl)methyl)-6-(2-methylthiazol-4-ylsulfonyl)phthalazin-1(2H)-one], the Emax was 94.2% and the EC50 was 106 nM.

`O=c1c2ccc(S(=O)(=O)c3ccccc3)cc2cnn1Cc1cc(C2CC2)[nH]n1` [Example 25, 2-((5-cyclopropyl-1H-pyrazol-3-yl)methyl)-6-(phenylsulfonyl)phthalazin-1(2H)-one] gave an Emax of 126% and an EC50 of 198 nM.

With `O=c1c2ccc(S(=O)(=O)c3ccccc3)cc2cnn1Cc1n[nH]cc1CO` [Example 26, 2-((4-(hydroxymethyl)-1H-pyrazol-3-yl)methyl)-6-(phenylsulfonyl)phthalazin-1(2H)-one] the Emax was 106% and the EC50 was 838 nM.

`Cn1ccc(Cn2ncc3cc(S(=O)(=O)c4ccccc4)cc(F)c3c2=O)n1` [Example 245, 8-fluoro-2-((1-methyl-1H-pyrazol-3-yl)methyl)-6-(phenylsulfonyl)phthalazin-1(2H)-one] was tested, and the Emax was 103% and the EC50 was 54.2 nM.

In the case of `Nc1cccc(Cn2ncc3cc(S(=O)(=O)c4cccc5cccnc45)ccc3c2=O)c1` [Example 114, 2-(3-aminobenzyl)-6-(quinolin-8-ylsulfonyl)phthalazin-1(2H)-one], the Emax is reported as 97.1% and the EC50 is reported as 208 nM.

`COc1ccc(Cn2ncc3cc(S(=O)(=O)c4ccc(F)cc4)ccc3c2=O)cn1` [Example 147, 6-((4-fluorophenyl)sulfonyl)-2-((6-methoxypyridin-3-yl)methyl)phthalazin-1(2H)-one] gave an Emax of 98.8% and an EC50 of 94.8 nM.

In the case of `COC(C)c1nc(S(=O)(=O)c2ccc3c(=O)n(Cc4nc(C)c(C)cc4F)ncc3c2)cs1` (centres unmarked) [Example 353], the Emax is reported as 105% and the EC50 is reported as 98.8 nM.

`COCCn1ccc(S(=O)(=O)c2ccc3c(=O)n(Cc4ccc5c(n4)CCO5)ncc3c2)n1` [Example 360] was tested, and the Emax was 113% and the EC50 was 71.4 nM.

`Cc1cccc(Cn2ncc3cc(S(=O)(=O)c4cnn(CCN)c4)ccc3c2=O)n1` [Example 277, 6-((1-(2-aminoethyl)-1H-pyrazol-4-yl)sulfonyl)-2-((6-methylpyridin-2-yl)methyl)phthalazin-1(2H)-one] gave an Emax of 105% and an EC50 of 304 nM.

For `CC(O)c1cccc(Cn2ncc3cc(S(=O)(=O)c4cnn(C)c4)ccc3c2=O)n1` (centres unmarked) [Example 274, 2-((6-(1-hydroxyethyl)pyridin-2-yl)methyl)-6-((1-methyl-1H-pyrazol-4-yl)sulfonyl)phthalazin-1(2H)-one], the Emax was 93% and the EC50 was 350 nM.

`Cn1ccc(Cn2ncc3cc(S(=O)(=O)c4ccccc4)cnc3c2=O)n1` [Example 250, 7-((1-methyl-1H-pyrazol-3-yl)methyl)-3-(phenylsulfonyl)pyrido[2,3-d]pyridazin-8(7H)-one] gave an Emax of 92.4% and an EC50 of 398 nM.

With `Cn1ccc(S(=O)(=O)c2ccc3c(=O)n(Cc4cccc(OC(F)F)c4)ncc3c2)n1` [Example 198, 2-(3-(difluoromethoxy)benzyl)-6-((1-methyl-1H-pyrazol-3-yl)sulfonyl)phthalazin-1(2H)-one] the Emax was 74% and the EC50 was 100 nM.

For `C[C@@H](O)c1cccc(Cn2ncc3cc(S(=O)(=O)c4cnn(C)c4)ccc3c2=O)n1` (single isomer, unassigned) [Example 279], the Emax was 88.7% and the EC50 was 277 nM.

For `O=c1c2ccc(S(=O)(=O)c3cc[nH]n3)cc2cnn1Cc1ccc2c(n1)CCO2` [Example 299, 6-((1H-pyrazol-3-yl)sulfonyl)-2-((2,3-dihydrofuro[3,2-b]pyridin-5-yl)methyl)phthalazin-1(2H)-one], the Emax was 104% and the EC50 was 31.2 nM.

With `COc1ccc(S(=O)(=O)c2ccc3c(=O)n(Cc4cc[nH]n4)ncc3c2)nc1` [Example 257, 2-((1H-pyrazol-3-yl)methyl)-6-((5-methoxypyridin-2-yl)sulfonyl)phthalazin-1(2H)-one] the Emax was 99.3% and the EC50 was 161 nM.

`Cc1[nH]nc(Cn2ncc3cc(S(=O)(=O)c4cnn(C)c4)ccc3c2=O)c1C` [Example 348] showed an Emax of 94.3% and an EC50 of 51.6 nM.

Compound `COCCn1cc(S(=O)(=O)c2ccc3c(=O)n(Cc4cc[nH]n4)ncc3c2)cn1` [Example 281, 2-((1H-pyrazol-3-yl)methyl)-6-((1-(2-methoxyethyl)-1H-pyrazol-4-yl)sulfonyl)phthalazin-1(2H)-one] has an Emax of 113% and an EC50 of 382 nM.

Compound `C[C@@H]1Cc2cc(S(=O)(=O)c3ccc4c(=O)n(Cc5ccn(C)n5)ncc4c3)ccc2O1` [Example 217, (R)-2-((1-methyl-1H-pyrazol-3-yl)methyl)-6-((2-methyl-2,3-dihydrobenzofuran-5-yl)sulfonyl)phthalazin-1(2H)-one] has an Emax of 115% and an EC50 of 60.2 nM.

`COc1ccc(S(=O)(=O)c2ccc3c(=O)n(Cc4cc[nH]n4)ncc3c2)cn1` [Example 235, 2-((1H-pyrazol-3-yl)methyl)-6-((6-methoxypyridin-3-yl)sulfonyl)phthalazin-1(2H)-one] was tested, and the Emax was 114% and the EC50 was 56.6 nM.
